This note sets out measurements from patent US10736968B2, “Cellular signalling inhibitors, their formulations and methods thereof” (INVICTUS ONCOLOGY PVT. LTD., priority 2016, dated 2020).

One assay relates to monocytes. Briefly: M1/M2 marker expression in IL-4 treated monocytes (FACS). The note with it: IL4 24 hours then inhibitor 24 h, CD206, MHC-II, CD86, CD80. Type of assay: cell-based. As to the method: FIG. 4. Effect of BLZ-945 and BLN101 (formulated as AK750) in repolarization of the M2-macrophage phenotype formed upon stimulation with IL-4 to the M1-macrophage phenotype. Monocytes were treated with IL-4 for 24 hours, followed by which they were treated with BLZ-945 or BLN101 (formulated as AK750) in basal DMEM media, and cells were collected at different time points. M1 and M2 markers expression on the macrophages and their isotype control was evaluated separately by FACS. Graph represents the representative M1/M2 ratio by taking into account the various individual M1 and M2 markers that were analyzed using FACS. Data are representative of 3 separate experiments.
Activity Studies of Compound of Formula I • Efficacy of BLN101 vs BLZ945 on the ability to inhibit CSF1R in vitro is studied. RAW264.7 cells are treated with BLZ945 (67 nM) or BLN101 (67 nM) for different time points, at the end of which the cells were exposed to CSF1 (10 ng/ml) for 20 min. The cells were then lysed and analyzed for phosphorylated CSF1R levels. […] Efficacy of BLN101 (in formulation AK750) vs BLZ945 on increase in iNOS expression in vitro is studied. […] At different time-points, the cells are harvested and analyzed the population for M1 (MHCII+, CD86+, CD80+) or M2 (CD206+) markers using fluorescence activated cell sorting (FIG. 5d). […]

In the next assay the test system is AKT-mTOR-p70S6K pathway. Briefly: Downstream signaling in macrophages after drug washout and MCSF exposure (Western blot). Type of assay: cell-based. The note with it: 4 hours drug, washout 7 h or 48 h, MCSF 2 h.

Take `CNC(=O)c1cc(Oc2ccc3nc(NC4CCCC[C@H]4OC(=O)CCC(=O)O[C@H]4CC[C@@]5(C)C(=CC[C@H]6[C@@H]7CC[C@H](C(C)CCCC(C)C)[C@@]7(C)CC[C@@H]65)C4)sc3c2)ccn1` (stereo in doubt) [BLN101]: in the assay with monocytes, the “M1 and M2 macrophage markers” value was “significantly increases the markers associated with M1 macrophages while reducing the M2 macrophage markers”.

For the compound `CNC(=O)c1cc(Oc2ccc3nc(N[C@@H]4CCCC[C@H]4O)sc3c2)ccn1` [BLZ-945], the AKT-mTOR-p70S6K downstream signaling result in the assay on AKT-mTOR-p70S6K pathway is “not by BLZ945 and PLX3397”.
